For assay [1], the system named is S. aureus strain ALR. Briefly: Rat nasal colonization model. Format: in vivo, Wistar rats. The conditions noted are these: equimolar concentrations, intranasally twice a day on days 5, 6, 7. An excerpt: FIGS. 1a-1c depict peptidoglycan hydrolase construct schematics, resistance development and effectiveness in eradicating S. aureus carriage in a rat colonization model. FIG. 1a is a schematic of the peptidoglycan hydrolase constructs. Domains: CHAP endopeptidase (CHAP, red box); N-acetylmuramoyl-L-alanine amidase (AMID, green box); M23 endopeptidase (PEP, blue oval); CBDs (LysK SH3b, gold diamond; lysostaphin SH3b, gold diamond with dot); protein transduction domain (PTD, blue circle); hexahistidine purification tag (His6). Domains are not to scale. Specific peptidoglycan cut sites are illustrated in FIG. 3a. FIG. 1b depicts in vitro antimicrobial resistance development. Engineered triple fusions K-L and L-K suppress antimicrobial resistance development compared to LysK (K), lysostaphin (L), or a combination of equimolar concentrations of both (L+K). Changes in Minimum Inhibitory Concentrations (MIC) are depicted as a fold-change at the tenth round of sublethal exposure compared to the first exposure, with the average fold-change of 4 replicates in red. Error bars=SEM. First exposure MICs: Lysostaphin, 0.77 μg/ml (27 nM); LysK, 47 μg/ml (840 nM); Lysostaphin and LysK (L+K) in combination 0.2 μg/ml (7 nM and 3 nM, respectively); triple fusion K-L, 7 μg/ml (97 nM); triple fusion L-K, 7.8 μg/ml (107 nM). FIG. 1c depicts reduction in colonization in a rat nasal carriage model. Rats were inoculated with S. aureus strain ALR on Day 1. After 5 days, the rats were treated twice daily for 3 days with 20 μl of a 10 mg/ml solution of each enzyme. The rat noses were excised on day 10, homogenized, and quantitative cultures were performed. Each point represents the CFU recovered from an individual rat. Bars indicate the median CFU/nose recovered from treated rats. […] Data were compiled from five independent experiments. Lyso=commercially purchased lysostaphin (AMBI, Tarrytown, N.Y.). Statistical comparisons were made with the Mann-Whitney test. SEQ ID NOs of depicted peptidoglycan hydrolase constructs: Lysostaphin (SEQ ID NO:1); Lysostaphin-PTD1-4, 6-12 (SEQ ID NOs:9, 11, 13, 15, 17, 19, 21, 23, 25, 27, 29, respectively); LysK (SEQ ID NO:3); LysK-PTD1-11 (SEQ ID NOs: 31, 33, 35, 37, 39, 41, 43, 45, 47, 49, 51, respectively); LysK-Lysostaphin Fusion K-L (SEQ ID NO:5); K-L-PTD1-4, 6-11 (SEQ ID NOs:53, 55, 57, 59, 61, 63, 65, 67, 69, 71, respectively); Lysostaphin-LysK Fusion L-K (SEQ ID NO:7).
Reduction in nasal colonization was observed when rats were challenged on day 0 with 10^7 CFU S. aureus strain ALR and then treated twice per day on days 5, 6, and 7 with 10 μl of 2% mupirocin calcium ointment (Bactroban Nasal) or petrolatum/softisan placebo. Noses from rats were homogenized and cultured quantitatively on day 10. Each point represents the CFU recovered from an individual rat, and the data were compiled from two independent experiments. Data were analyzed by the Mann-Whitney test, and horizontal lines represent median values. Mupirocin reduced colonization ˜98% compared to the placebo control.
The rat nasal colonization model is an adaptation of the mouse nasal colonization model that we described previously (Schaffer et al. 2006. Infect. Immun. 74:2145-2153). All animal experiments were conducted in accordance with a protocol approved by the appropriate Institutional Animal Care and Use Committees. Wistar rats (5 to 6 wks of age) were obtained from Charles River Laboratories (Wilmington, Mass.) and given food and water ad libitum. The animals were housed two per cage in a modified barrier facility under viral antibody-free conditions. The rats were given drinking water containing streptomycin sulfate (0.5 g/liter; Sigma) 1 day prior to bacterial inoculation and for the course of the experiment. The drinking water and cages were changed three times per week. […]

The subject of assay [2] is S. simulans MP03. The assay can be described thus: Minimum Inhibitory Concentration (MIC) assay. Format: cell-based, Staphylococcus simulans. The note with it: Mastitis isolate S. simulans MP03.
The subject of assay [3] is USA 600 (NRS 22). Briefly: Minimum Inhibitory Concentration (MIC) assay. Format: cell-based, S. aureus. As for the experimental part:
(§1) The Minimum Inhibitory Concentrations (MIC) of each protein for multiple S. aureus strains was determined as previously described (Jones et al. 1985. In: Manual of Clinical Microbiology, Eds. Balows et al. American Society of Microbiology, Washington D.C., pp. 972-977) with the following modifications. Enzymes were serially diluted two fold across a 96 well plate, such that after dilution, 50 μl of the enzyme solution in 300 mM NaCl, 50 mM NaH2PO4, 30% glycerol pH 7.5, remained in each well. To each well was added 50 μl of TSB and 100 μl of S. aureus Newman in TSB (diluted to 5×10^6 cells/ml). The plates were incubated 20 h at 37° C. and read with a 96 well plate reader. MIC determination values were reported as the median of ≧4 replicates (Table 1).

For assay [4], the system named is Sanger 252 (NRS 71). The assay can be described thus: Minimum Inhibitory Concentration (MIC) assay. Format: cell-based, S. aureus. As for the experimental part: as §1
The subject of assay [5] is USA 200 (NRS 383). Briefly: Minimum Inhibitory Concentration (MIC) assay. Format: cell-based, S. aureus. As for the experimental part: as §1
The subject of assay [6] is USA 400 (NRS 123). The assay can be described thus: Minimum Inhibitory Concentration (MIC) assay. Format: cell-based, S. aureus. As for the experimental part:
as §1

Assay [7] relates to NRS 193. The assay can be described thus: Minimum Inhibitory Concentration (MIC) assay. Format: cell-based, S. aureus. On the procedure: as §1
Assay [8] concerns NRS 271. The assay can be described thus: Minimum Inhibitory Concentration (MIC) assay. Format: cell-based, S. aureus. As for the experimental part:
as §1

Assay [9] concerns USA 300 (NRS 384). Briefly: Minimum Inhibitory Concentration (MIC) assay. Format: cell-based, S. aureus. On the procedure:
as §1

Assay [10] deals with NRS 194. Briefly: Minimum Inhibitory Concentration (MIC) assay. The format is cell-based, S. aureus. On the procedure:
as §1

Assay [11] concerns NRS 192. The assay can be described thus: Minimum Inhibitory Concentration (MIC) assay. Format: cell-based, S. aureus. On the procedure:
as §1

The test system of assay [12] is NRS 209. The assay can be described thus: Minimum Inhibitory Concentration (MIC) assay. Format: cell-based, S. aureus. On the procedure:
as §1

In assay [13] the test system is N315 (NRS 70). The assay can be described thus: Minimum Inhibitory Concentration (MIC) assay. The format is cell-based, S. aureus. On the procedure: as §1
Assay [14] deals with USA 100 (NRS 382). The assay can be described thus: Minimum Inhibitory Concentration (MIC) assay. The format is cell-based, S. aureus. As for the experimental part: as §1
Assay [15] deals with USA 500 (NRS 385). Briefly: Minimum Inhibitory Concentration (MIC) assay. Format: cell-based, S. aureus. On the procedure:
as §1

Results on three molecules are retold here after patent US20160097044A1, “Antimicrobial Enzyme Fusions Reduce Resistance and Kill Intracellular Staphylococcus aureus” (The United States of America, as Represented by the …, priority 2014, published 2016).

As for “K-L: both LysK lytic domains fused to the N-terminus of lysostaphin; SEQ ID NO:5, protein SEQ ID NO:6”, the “reduction of nasal bacterial load (in words)” value in assay [1] was “unable to significantly reduce the bacterial load”. Also, the “Minimum Inhibitory Conc. (median μg/ml)” value turned out to be 3.5 µg/mL in assay [2]; 7.0 µg/mL in assay [3]; 5.5 µg/mL in [4]; 5.5 µg/mL in [5]; 7.0 µg/mL in [6]; 7.0 µg/mL in [7]. Besides, the “Minimum Inhibitory Conc. (median μg/ml)” value turned out to be 7.0 µg/mL in [8]; 11 µg/mL in assay [9]; 14 µg/mL in [10]; 11 µg/mL in [11]; 7.0 µg/mL in assay [12]; 7.0 µg/mL in assay [13]. The “Minimum Inhibitory Conc. (median μg/ml)” value amounted to 14 µg/mL in assay [14] and 7.0 µg/mL in assay [15].

Regarding “L: 247 amino acid mature (secreted) lysostaphin, staphylolytic bacteriocin, C-terminal His6 tag; SEQ ID NO:1 [reference compound]”, the “Minimum Inhibitory Conc. (median μg/ml)” value in assay [2] is 1.5 µg/mL; in assay [3], 1.2 µg/mL; in assay [4], 0.58 µg/mL; in assay [5], 1.2 µg/mL; in assay [6], 1.2 µg/mL; in assay [7], 1.2 µg/mL. Moreover, the “Minimum Inhibitory Conc. (median μg/ml)” value in assay [8] turned out to be 0.58 µg/mL; in assay [9] it was 1.2 µg/mL; in [10], 1.2 µg/mL; in assay [11], 1.2 µg/mL; in assay [12], 0.97 µg/mL; in [13], 0.68 µg/mL. The “Minimum Inhibitory Conc. (median μg/ml)” value in assay [14] and in assay [15] was 1.2 µg/mL each time.

B1: K: 495 amino-acid staphylococcal phage K endolysin LysK, C-terminal His6 tag; SEQ ID NO:3 (protein)
chain: MAKTQAEINKRLDAYAKGTVDSPYRVKKATSYDPSFGVMEAGAIDADGYYHAQCQDLITDYVLWLTDNKVRTWGNAKDQIKQSYGTGFKIHENKPSTVPKKGWIAVFTSGSYEQWGHIGIVYDGGNTSTFTILEQNWNGYANKKPTKRVDNYYGLTHFIEIPVKAGTTVKKETAKKSASKTPAPKKKATLKVSKNHINYTMDKRGKKPEGMVIHNDAGRSSGQQYENSLANAGYARYANGIAHYYGSEGYVWEAIDAKNQIAWHTGDGTGANSGNFRFAGIEVCQSMSASDAQFLKNEQAVFQFTAEKFKEWGLTPNRKTVRLHMEFVPTACPHRSMVLHTGFNPVTQGRPSQAIMNKLKDYFIKQIKNYMDKGTSSSTVVKDGKTSSASTPATRPVTGSWKKNQYGTWYKPENATFVNGNQPIVTRIGSPFLNAPVGGNLPAGATIVYDEVCIQAGHIWIGYNAYNGNRVYCPVRTCQGVPPNQIPGVAWGVFKLEHHHHHH
modifications: C-terminal His6 tag; Phage K
Turning to B1, the “reduction of nasal bacterial load (in words)” value in [1] was “unable to significantly reduce the bacterial load”. The “Minimum Inhibitory Conc. (median μg/ml)” value amounted to 20 µg/mL in [2]; 75 µg/mL in [3]; 29 µg/mL in assay [4]; 34 µg/mL in assay [5]; 75 µg/mL in assay [6]; 37 µg/mL in assay [7]. In addition, the “Minimum Inhibitory Conc. (median μg/ml)” value in [8] was 44 µg/mL; in [9], 75 µg/mL; in assay [10] it was 69 µg/mL; in assay [11], 80 µg/mL; in [12], 40 µg/mL; in [13] it was 37 µg/mL. The figures for the “Minimum Inhibitory Conc. (median μg/ml)” value in [14] and in assay [15] were 96 µg/mL and 67 µg/mL, respectively.
